Experimental data taken from patent US20230323355A1 (priority 2020, published 2023).

System: SARS-CoV-2 Wuhan virus (SARS-CoV-2-WA1 2020)
Experiment: microbe, parasite or virus in culture
Type: cell-based

## CCC(CC)COC(=O)[C@H](C)N[P@](=O)(OC[C@H]1O[C@@](C#N)(c2ccc3c(N)ncnn23)[C@H](O)[C@@H]1O)Oc1ccccc1 [Remdesivir]
  fold reduction in SARS-CoV-2 replication: 1.5 fold
  inhibition of SARS-CoV-2 Wuhan: did not inhibit
Severe acute respiratory syndrome coronavirus 2, Vero C1008
  EC50: ~800 nM
